In patent US9422243B2 (priority 2011, dated 2016):
Like-named read-outs stand apart in the source and are kept apart here.

Columns and labels:
[1] = mouse, 10 mg/kg, oral vs IV dose-normalized plasma AUC
in vivo = details: male, Balb, Nu/Nu, mouse, plasma, 10 mg/kg; for Vd / clearance: iv; for AUC / Cmax / half-life: po
[2] = tested on: Capan-1 human pancreatic cancer tumors; details: for T − C: time to reach 1 g
[3] = tested on: BRCA mutations and breast, ovarian and prostate cancer; details: 19 patients with BRCA mutations and breast, monotherapy; cited from earlier work
[4] = temozolomide 50 mg/kg oral, days 3, 4, 5, 6, 7 and 8
[5] = cpd. 1 100 mg/kg oral daily, days 1 to 14

Structure (SMILES)	F on AUC [1] [%]	Vd (in vivo) [L/kg]	clearance (in vivo) [mL/min/kg]	AUC (in vivo) [µM·h]	Cmax (in vivo) [nM]	half-life (in vivo) [h]	BWL (%) [2, 4] [%]	TGI (%) [2, 4] [%]	Toxicity [2, 4]	T − C [2, 4] [days]	objective response rate [3] [%]	BWL (%) [2, 5] [%]	TGI (%) [2, 5] [%]	Toxicity [2, 5]	T − C [2, 5] [days]
Cl.NCCOc1c(-c2ccc(Br)cc2)[nH]c(=O)c2c(F)c(F)ccc12 [Compound 12, 4-(2-Amino-ethoxy)-3-(4-bromo-phenyl)-7,8-difluoro-2H-isoquinolin-1-one hydrochloride]	109	4.5	46.3	8.15	3150	1.77	–	–	–	–	–	–	–	–	–
Cn1nnc2c(C(N)=O)ncn2c1=O [temozolomide, reference compound]	–	–	–	–	–	–	2.5	13	0/7	1	–	–	–	–	–
O=C(c1cc(Cc2n[nH]c(=O)c3ccccc23)ccc1F)N1CCN(C(=O)C2CC2)CC1 [Olaparib]	–	–	–	–	–	–	–	–	–	–	47	–	–	–	–
Cl.NCCOc1c(-c2ccc(Cl)cc2)[nH]c(=O)c2cc(F)ccc12 [Compound 8, 4-(2-Amino-ethoxy)-3-(4-chloro-phenyl)-7-fluoro-2H-isoquinolin-1-one hydrochloride]	74	5.2	28.2	7.5	2850	3	–	–	–	–	–	–	–	–	–
NCCOc1c(-c2ccc(Cl)c(Cl)c2)[nH]c(=O)c2cc(F)ccc12 [Compound 14, 4-(2-Amino-ethoxy)-3-(3,4-dichloro-phenyl)-7-fluoro-2H-isoquinolin-1-one]	136	4.2	20.5	20.3	2800	3.5	–	–	–	–	–	–	–	–	–
Cc1cc(-c2[nH]c(=O)c3cc(F)ccc3c2OCCN)ccc1Cl.Cl [Compound 13, 4-(2-Amino-ethoxy)-3-(4-chloro-3-methyl-phenyl)-7-fluoro-2H-isoquinolin-1-one hydrochloride]	128	5.7	45	10	2000	3	–	–	–	–	–	–	–	–	–
Cl.NCCOc1c(-c2ccc(Br)cc2)[nH]c(=O)c2cc(F)ccc12 [Compound 1, 4-(2-Amino-ethoxy)-3-(4-bromo-phenyl)-7-fluoro-2H-isoquinolin-1-one hydrochloride]	107	3.6	12	27	6000	3.9	–	–	–	–	–	3	21	0/7	4
Cl.NCCOc1c(-c2ccc(N3CCOCC3)c(Br)c2)[nH]c(=O)c2cc(F)ccc12 [Compound 4, 4-(2-Amino-ethoxy)-3-(3-bromo-4-morpholin-4-yl-phenyl)-7-fluoro-2H-isoquinolin-1-one hydrochloride]	83	7.8	44.5	5.6	3000	1.43	–	–	–	–	–	–	–	–	–
COc1ccc(-c2[nH]c(=O)c3cc(F)ccc3c2OCCN)cc1F.Cl [Compound 21, 4-(2-Amino-ethoxy)-7-fluoro-3-(3-fluoro-4-methoxy-phenyl)-2H-isoquinolin-1-one hydrochloride]	133	6.5	45.4	10.5	4600	3.9	–	–	–	–	–	–	–	–	–
